Source: a compilation of properties of binary mixtures (doi:10.1021/acs.jced.1c00419)

Test: xn = mol fraction of the nth substance listed
Conditions: 101.3 kPa

CCCCCC[n+]1ccn(C)c1.F[B-](F)(F)F + NC1CCCCC1
speed of sound [m/s]
Conditions | x1 = 0.097 | x1 = 0.1808 | x1 = 0.2945 | x1 = 0.396 | x1 = 0.5009 | x1 = 0.6048 | x1 = 0.7029 | x1 = 0.8008 | x1 = 0.8991
293.15 K | 1440 | 1452 | 1465 | – | 1486 | 1496 | 1505 | – | 1522
298.15 K | – | – | 1446 | 1458 | 1469 | 1480 | 1490 | 1499 | –
303.15 K | 1400 | 1411 | 1427 | 1440 | 1453 | – | 1475 | 1485 | 1496
308.15 K | 1379 | 1392 | 1408 | 1422 | 1435 | 1449 | 1460 | – | –
313.15 K | – | 1371 | 1389 | 1404 | 1418 | – | 1445 | 1457 | 1470
318.15 K | 1337 | 1351 | 1370 | 1385 | 1402 | 1417 | 1430 | 1444 | –
323.15 K | 1316 | 1331 | – | – | – | 1401 | – | 1430 | 1444

CCCCCCCCn1cc[n+](C)c1.F[B-](F)(F)F + NC1CCCCC1
speed of sound [m/s]
Conditions | x1 = 0.1076 | x1 = 0.203 | x1 = 0.3072 | x1 = 0.4001 | x1 = 0.492 | x1 = 0.6078 | x1 = 0.7023 | x1 = 0.7996 | x1 = 0.8963
293.15 K | – | 1453 | – | 1470 | – | 1480 | 1486 | 1490 | –
298.15 K | 1423 | – | 1445 | 1452 | 1459 | 1465 | – | 1475 | 1480
303.15 K | – | – | 1427 | 1435 | 1443 | 1450 | 1455 | 1460 | 1466
308.15 K | 1382 | 1396 | – | 1418 | 1426 | 1435 | 1440 | 1446 | 1452
313.15 K | 1362 | 1377 | 1391 | 1401 | – | 1419 | 1426 | 1432 | 1439
318.15 K | 1342 | 1358 | – | – | 1394 | – | – | 1418 | 1426
323.15 K | – | 1340 | 1355 | 1368 | 1377 | 1388 | 1396 | 1405 | –

NC1CCCCC1 + CCCC[n+]1ccn(C)c1.F[B-](F)(F)F
speed of sound [m/s]
Conditions | x2 = 0 | x2 = 0.0982 | x2 = 0.2032 | x2 = 0.301 | x2 = 0.4012 | x2 = 0.4828 | x2 = 0.6016 | x2 = 0.7124 | x2 = 0.8012 | x2 = 0.9024
293.15 K | – | 1442 | 1456 | 1469 | 1484 | 1496 | 1514 | 1532 | 1545 | –
298.15 K | 1409 | 1420 | 1435 | 1450 | – | 1479 | – | 1517 | 1533 | 1549
303.15 K | 1387 | 1400 | 1415 | 1431 | 1448 | 1462 | 1484 | – | 1520 | 1538
308.15 K | – | 1380 | 1395 | 1412 | 1430 | 1445 | 1467 | 1488 | 1506 | 1525
313.15 K | 1344 | 1360 | 1376 | – | 1413 | 1428 | 1452 | 1474 | 1493 | –
318.15 K | 1323 | 1340 | 1357 | – | 1396 | 1412 | 1436 | 1460 | 1479 | 1501
323.15 K | – | 1320 | 1338 | 1356 | 1378 | 1395 | – | 1446 | 1466 | 1489

NC1CCCCC1 + CCCCCC[n+]1ccn(C)c1.F[B-](F)(F)F
x2 = 0
Conditions | speed of sound [m/s]
293.15 K | 1430
298.15 K | 1409
303.15 K | 1387
308.15 K | 1366
313.15 K | 1344
318.15 K | 1323
323.15 K | 1302

NC1CCCCC1 + CCCCCCCCn1cc[n+](C)c1.F[B-](F)(F)F
x2 = 0
Conditions | speed of sound [m/s]
293.15 K | 1430
303.15 K | 1387
323.15 K | 1302
